Experiment [1] concerns Escherichia coli. Nature of the experiment: Antibacterial activity against Escherichia coli CFT073. Type of experiment: functional.
In experiment [2] the test system is Escherichia coli. Nature of the experiment: Antibacterial activity against Escherichia coli UTI89. Type of experiment: functional.
In experiment [3] the test system is Pseudomonas aeruginosa. Nature of the experiment: Antibacterial activity against Pseudomonas aeruginosa. The class given is functional.
Experiment [4] concerns Staphylococcus epidermidis. Nature of the experiment: Antibacterial activity against Staphylococcus epidermidis. The class given is functional.
Experiment [5] deals with Staphylococcus aureus. Nature of the experiment: Antibacterial activity against Staphylococcus aureus. The class given is functional.
The test system of experiment [6] is Serratia marcescens. Nature of the experiment: Antibacterial activity against Serratia marcescens. The class given is functional.
Experiment [7] has as its system Bacillus subtilis. Nature of the experiment: Antibacterial activity against Bacillus subtilis. Type of experiment: functional.
Experiment [8] concerns Klebsiella pneumoniae. Nature of the experiment: Antibacterial activity against Klebsiella pneumoniae. The class given is functional.
Experiment [9] has as its system Escherichia coli. Nature of the experiment: Antibacterial activity against Escherichia coli. Type of experiment: functional.
In experiment [10] the test system is Staphylococcus aureus. Nature of the experiment: Antibacterial activity against methicillin resistant Staphylococcus aureus. The class given is functional.
For experiment [11], the system named is Staphylococcus aureus. Nature of the experiment: Potency index, ratio of ciprofloxacin MIC to test compound MIC for antibacterial activity against methicillin resistant Staphylococcus aureus. The class given is functional.
The test system of experiment [12] is Staphylococcus aureus. Nature of the experiment: Potency index, ratio of ciprofloxacin MIC to test compound MIC for antibacterial activity against Staphylococcus aureus. The class given is functional.
Experiment [13] concerns Citrobacter freundii. Nature of the experiment: Antibacterial activity against Citrobacter freundii. The class given is functional.
The test system of experiment [14] is Shigella flexneri. Nature of the experiment: Antibacterial activity against Shigella flexneri. The class given is functional.
The subject of experiment [15] is Vibrio cholerae. Nature of the experiment: Antibacterial activity against Vibrio cholerae. The class given is functional.
Experiment [16] in a line: Antibacterial activity against Salmonella typhi. Type of experiment: functional, Salmonella enterica subsp. enterica serovar Typhimurium. The note with it: Salmonella enterica.
Experiment [17] concerns Enterococcus faecium. Nature of the experiment: Antibacterial activity against Enterococcus faecium. The class given is functional.
In experiment [18] the test system is Acinetobacter baumannii. Nature of the experiment: Antibacterial activity against quinolone resistant Acinetobacter baumannii. The class given is functional.
Experiment [19] deals with Chlamydia trachomatis. Nature of the experiment: Antibacterial activity against Chlamydia trachomatis. The class given is functional.
For experiment [20], the system named is Enterobacter. Nature of the experiment: Antibacterial activity against Enterobacter. The class given is functional.
Experiment [21] concerns Staphylococcus epidermidis. Nature of the experiment: Potency index, ratio of ciprofloxacin MIC to test compound MIC for antibacterial activity against methicillin sensitive Staphylococcus epidermidis. The class given is functional.
The subject of experiment [22] is Staphylococcus aureus. Nature of the experiment: Potency index, ratio of ciprofloxacin MIC to test compound MIC for antibacterial activity against methicillin sensitive Staphylococcus aureus. The class given is functional.
The test system of experiment [23] is Staphylococcus aureus. Nature of the experiment: Antibacterial activity against methicillin susceptible Staphylococcus aureus. The class given is functional.
The test system of experiment [24] is Pseudomonas aeruginosa. Nature of the experiment: Antibacterial activity against quinolone susceptible Pseudomonas aeruginosa. Type of experiment: functional.
Experiment [25] has as its system Staphylococcus aureus. Nature of the experiment: Antibacterial activity against ciprofloxacin resistant Staphylococcus aureus. The class given is functional.
Experiment [26] deals with Priestia megaterium. Nature of the experiment: Antibacterial activity against Bacillus megaterium. Type of experiment: functional.
The test system of experiment [27] is Pseudomonas aeruginosa. Nature of the experiment: Antibacterial activity against quinolone resistant Pseudomonas aeruginosa. The class given is functional.
The test system of experiment [28] is Micrococcus luteus. Nature of the experiment: Antibacterial activity against Micrococcus luteus. Type of experiment: functional.
The test system of experiment [29] is Escherichia coli. Nature of the experiment: Antibacterial activity against ciprofloxacin resistant Escherichia coli. Type of experiment: functional.
The test system of experiment [30] is Streptococcus pneumoniae. Nature of the experiment: Antibacterial activity against Streptococcus pneumoniae. The class given is functional.
In experiment [31] the test system is Escherichia coli. Nature of the experiment: Antibacterial activity against quinolone resistant Escherichia coli. Type of experiment: functional.
Experiment [32] relates to Clostridioides difficile. Nature of the experiment: Antibacterial activity against Clostridioides difficile. The class given is functional.

Converted amounts (≈) assume the structure as drawn.

For `CC(=O)c1cn(C2CC2)c2cc(N3CCN(C(=O)CCCCCNC(=O)c4cc(O)c(O)c(C(=O)N[C@H]5COC(=O)[C@@H](NC(=O)c6cccc(O)c6O)COC(=O)[C@@H](NC(=O)c6cccc(O)c6O)COC5=O)c4)CC3)c(F)cc2c1=O`, the MIC in experiment [1] and in experiment [2] was 0.1 µg/mL (≈ 0.0879 µM) each time.

Regarding `O=C(CN1CCN(c2cc3c(cc2F)c(=O)c(C(=O)O)cn3-c2ccc(F)cc2)CC1)c1ccc(Cl)cc1`, the minimum inhibitory concentration (MIC) in experiment [3], in experiment [4], in experiment [5], in experiment [6], in [7] and in [8] was 0.5 µg/mL (≈ 0.929 µM) throughout. This molecule also had a minimal inhibitory concentration (MIC) in [9] of 0.5 µg/mL (≈ 0.929 µM).

Turning to `O=C(O)c1cn(C2CC2)c2cc(N3CCN(Cc4nc5ccccc5c(=O)[nH]4)CC3)c(F)cc2c1=O`, the minimal inhibitory concentration (MIC) in experiment [10] and in [5] was 0.016 µg/mL (≈ 0.0327 µM) throughout. In addition, the Ratio in experiment [11] is 60; in [12], 30.

Take `O=C(O)c1cn(C2CC2)c2cc(N3CCN(CN4c5ccccc5C(=O)N(c5ccc(Br)cc5)C4c4ccccc4)CC3)c(F)cc2c1=O` (centres undefined): the MIC in experiment [3], in experiment [13], in experiment [14], in [4], in experiment [15] and in [5] was 0.1 µg/mL (≈ 0.138 µM) in each case. For the same molecule, the MIC in [16] and in [8] was 0.1 µg/mL (≈ 0.138 µM) throughout.

Regarding `COc1c(N2CCN(C(=O)c3ccc4cccc(O)c4n3)CC2)c(F)cc2c(=O)c(C(=O)O)cn(C3CC3)c12`, the minimum inhibitory concentration (MIC) in experiment [17], in experiment [3], in experiment [18], in experiment [5], in experiment [19] and in experiment [20] was not above 0.06 µg/mL in each case. This molecule returned a minimum inhibitory concentration (MIC) in experiment [8] not above 0.06 µg/mL. The molecule further came in with an MBC in [19] of 2 µg/mL (≈ 3.76 µM).

On to `O=C(CSC(=S)N1CCN(c2cc3c(cc2F)c(=O)c(C(=O)O)cn3C2CC2)CC1)Nc1ccccc1Cl`, for which the Ratio in experiment [21], in experiment [22] and in experiment [12] was 2 in each case. The MIC in experiment [3] is 0.024 µg/mL (≈ 0.0417 µM); in [10] it was 0.097 µg/mL (≈ 0.169 µM); in [4], 0.097 µg/mL (≈ 0.169 µM); in [5] it was 0.097 µg/mL (≈ 0.169 µM); in experiment [23], 0.097 µg/mL (≈ 0.169 µM); in experiment [9], 0.024 µg/mL (≈ 0.0417 µM).

Consider `O=C(O)c1cn(C2CC2)c2cc(N3CCNCC3)c(F)cc2c1=O` [CIPROFLOXACIN], for which the MIC is 0.012 µg/mL (≈ 0.0362 µM) in [3]; 0.008 µg/mL (≈ 0.0241 µM) in experiment [24]; 16 µg/mL (≈ 48.3 µM) in [18]; 20.5 µg/mL (≈ 61.9 µM) in experiment [25]; 0.15 µg/mL (≈ 0.453 µM) in experiment [13]; 0.15 µg/mL (≈ 0.453 µM) in experiment [14]. Besides, the MIC amounted to 7.8 µg/mL (≈ 23.5 µM) in [26]; 0.015 µg/mL (≈ 0.0453 µM) in [4]; 0.15 µg/mL (≈ 0.453 µM) in experiment [15]; 0.015 µg/mL (≈ 0.0453 µM) in [5]; 0.15 µg/mL (≈ 0.453 µM) in experiment [16]; 16 µg/mL (≈ 48.3 µM) in experiment [27]. In addition, the minimal inhibitory concentration (MIC) in [28] was determined as 7.8 µg/mL (≈ 23.5 µM); in [7], 0.015 µg/mL (≈ 0.0453 µM); in [23], 0.195 µg/mL (≈ 0.589 µM); in experiment [29], 20.5 µg/mL (≈ 61.9 µM); in [8] it was 0.15 µg/mL (≈ 0.453 µM). In experiment [19], this molecule displayed an MBC of more than 50 µg/mL.

In the case of `COc1c(N2CCNC(C)C2)c(F)cc2c(=O)c(C(=O)O)cn(C3CC3)c12` (centres undefined) [GATIFLOXACIN], the MIC in experiment [5], in experiment [30] and in experiment [23] was 0.06 µg/mL (≈ 0.16 µM) each time.

On to `C[C@H]1COc2c(N3CCN(C)CC3)c(F)cc3c(=O)c(C(=O)O)cn1c23.C[C@H]1COc2c(N3CCN(C)CC3)c(F)cc3c(=O)c(C(=O)O)cn1c23.O` [LEVOFLOXACIN], for which the MIC in experiment [31] was determined as 4 µg/mL; in experiment [24] it was 0.015 µg/mL; in experiment [18], 4 µg/mL. In [32], this molecule displayed an MIC50 of 128 µg/mL. For the same molecule, in [32], the MIC90 is more than 128 µg/mL.

The term MIC denotes the lowest concentration that inhibits growth of the organism. A word on the MBC: it is the smallest concentration meeting the test's criterion for killing. Low readings indicate more potent killing, high ones less potent killing. As usually defined, the MIC50 is an inhibitory concentration at the 50% level, which refers to growth in some studies and to a panel of isolates in others. Usually MIC90 stands for the lowest concentration that inhibits either 90% of growth or 90% of the strains tested, depending on the study. A high value points to lower susceptibility.

Source of the values: ChEMBL document CHEMBL5241092, “The antibacterial activity of fluoroquinolone derivatives: An update (2018-2021)” (2021).
